Measured values from patent US20080145313A1, “Compositions and Methods for the Treatment and Prevention of Neoplastic Disorders” (Genesis Research & Development Corporation Limited, priority 2006, published 2008).

Tests used:
[1] = test system: A549 cells; assay: Growth inhibition of siRNA-transfected A549 cells, SYBR Green I DNA content; format: cell-based, human; conditions: for Growth Inhibition in A549 cells / Growth Inhibition in A549 cells by 10 nM siRNA: 10 nM siRNA, DNA content 96 hours after transfection; for Growth Inhibition in A549 cells by 10 nM siRNA: transporter gene targets
In short: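 A549 cells reverse-transfected with 10 nM Stealth siRNAs via Lipofectamine RNAiMAX, seeded at 5×10^3 cells/cm^2 in RPMI 1640/10% FCS; non-specific siRNA control. DNA content read 96 h post-transfection by SYBR Green I fluorescence (ex 485/em 535 nm) after freeze-thaw and Triton X-100 lysis; mean of three wells.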

[2] = test system: A549 xenograft tumor; assay: Xenograft tumor growth of A549 cells transfected with siRNA pre-implantation in CD-1 nude mice; format: in vivo, mouse; conditions: for tumor growth inhibition compared to the control groups: cells transfected pre-implantation, monitored 33 or 26 days; for tumor growth rate compared to control groups: A549 cells transfected with siRNA before s.c. inoculation
Description: To determine the effect of RRM1 knockdown on tumor growth, A549 cells (human lung cancer cell line; ATCC No. CCL-185) were reverse-transfected prior to implantation in CD-1 nude mice. In 175 cm^2 culture flasks, 10×10^6 A549 cells (in RPMI supplemented with 10% fetal calf serum) were added to pre-made lipoplexes. To make lipoplexes, Lipofectamine RNAiMAX in serum-free RPMI was added to an equal volume of serum-free RPMI containing siRNA (RRM1-2; SEQ ID NO: 4831 (DNA), and SEQ ID NO: 5137 (RNA)) and a control siRNA (SEQ ID NO: 4804 (DNA), and SEQ ID NO: 5301 (RNA)). After addition of cells, the final concentration of siRNA in the flask was 10 nM. Untransfected cells served as a further control. Flasks were incubated at 37° C. for 24 h to allow transfection to proceed.
The cells were harvested by trypsinization 24 h after the transfection, washed twice in PBS and viable cells were counted. Equal numbers of cells (1×10^7) were inoculated into CD-1 nude mice (n=7-9). Briefly, 5 to 7 weeks old nude mice were subcutaneously (s.c.) injected in the right flank with A549 cells in 100 μl PBS. Tumor growth was monitored 3 times per week by measuring tumor sizes using a digital caliper. Tumor volume was expressed in […] using the formula: V=a^2×b×0.52, where a and b represent the minimum and maximum tumor diameter, respectively. Mean tumor volumes calculated from each measurement were then plotted in a standard graph to compare the tumor growth of transfected cells to that of control.
To determine the effect of siRNA-mediated knockdown of HK-II, CAD, IMPDH2, RRM2, SLC16A1 and SLC29A1 on tumor growth, A549 cells (human lung cancer cell line; ATCC No. CCL-185) were reverse-transfected prior to implantation in CD-1 nude mice as described above with siRNAs given in SEQ ID NO: 5307 (DNA), and SEQ ID NO: 5304 (RNA) for RRM2, SEQ ID NO: 4932 (DNA), and SEQ ID NO: 5227 (RNA) for ENT1, SEQ ID NO: 4813 (DNA), and SEQ ID NO: 5119 (RNA) for HK-II, SEQ ID NO: 4827 (DNA), and SEQ ID NO: 5133 (RNA) for CAD, SEQ ID NO: 4879 (DNA), and SEQ ID NO: 5182 (RNA) for IMPDH2 and SEQ ID NO: 4924 (DNA), and SEQ ID NO: 5219 (RNA) for SLC16A1, respectively. The siRNA given in SEQ ID NO: 4804 (DNA), and SEQ ID NO: 5301 (RNA) was used as control.
In two separate experiments, CD-1 mice were divided into five groups that received untransfected A549 cells, cells transfected with control siRNA or three different siRNAs (as listed above), respectively. Cells were transfected in vitro using the method as described in Example 8, and 24 h after transfection, s.c. inoculated into mice. Tumor growth was measured 3 times per week. In the first experiment, mice received cells transfected with siRNA targeting RRM2, HK-II or SLC29A1 and were monitored for 33 days. In the second experiment, mice received cells transfected with siRNA targeting CAD, IMPDH2 or SLC16A1, and were monitored for 26 days. […] Similarly, preliminary data indicated tumor growth rate was reduced for the groups receiving cells transfected with siRNA targeting CAD and SLC16A1. Twenty-six days after cell inoculation, the tumor volume for mice with cells transfected with siRNA targeting CAD or SLC16A1 was 97.2±7.3 mm^3 or 110.1±28.1 mm^3, respectively.

[3] = test system: target transcript mRNA in A549 cells; assay: Level of mRNA of target transcript in A549 cells by quantitative RT-PCR (Tables 12 and 13); format: cell-based, human; conditions: 24 h post-transfection; for mRNA knockdown of transporter gene target transcript, 0.1 nM / mRNA knockdown of energy and metabolism gene target transcript, 0.1 nM: 0.1 nM siRNA; for mRNA knockdown of transporter gene target transcript, 1 nM / mRNA knockdown of energy and metabolism gene target transcript, 1 nM: 1 nM siRNA
In short: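 A549 cells were transfected with siRNA at 0.1, 1.0 and 10 nM. RNA was extracted 24 h later, reverse-transcribed with random primers, and target mRNA quantified by SYBR Green qRT-PCR. Values were normalised to housekeeping genes HPRT and Lamin.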

SEQ ID NO: 4813: siRNA targeting HK-II (chain 1 AATGAGACCAATCTCACAGTTGTGG; chain 2 AAUGAGACCAAUCUCACAGUUGUGG; chemistry not given here; one strand in two spellings)
Growth Inhibition in A549 cells [1]: ++ (inhibits by at least 75%) | tumor growth inhibition compared to the control groups [2]: No tumor growth inhibition

SEQ ID NO: 4827: siRNA targeting CAD (chain 1 TTCAAGAGAATTTGCTGCCTCGCTC; chain 2 UUCAAGAGAAUUUGCUGCCUCGCUC; chemistry not given here; one strand in two spellings)
Growth Inhibition in A549 cells [1]: + (inhibits by at least 50%) | tumor growth rate compared to control groups [2]: reduced | tumor volume ([2]; twenty-six days after cell inoculation, preliminary data): 97.2±7.3 mm^3

SEQ ID NO: 4831: Stealth siRNA targeting RRM1 (chain 1 TAGAAGTGCATACTAGTGAGTTTGC; chain 2 UAGAAGUGCAUACUAGUGAGUUUGC; Stealth siRNA, chemical pattern not given here; one strand in two spellings)
growth inhibition, A549 ([1]; 0.1 nM siRNA, 96 h post-transfection, normalized to control siRNA): 50% | Growth Inhibition in A549 cells [1]: ++ (inhibits by at least 75%) | mice with measurable tumors ([2]; A549 cells transfected with 10 nM siRNA 24 h before s.c. inoculation): two of eight | tumor growth rate compared to control groups [2]: reduced dramatically | average tumor size ([2]; six weeks after the cell inoculation, 10 nM siRNA pre-implantation): 49.1±18.4 mm^3

SEQ ID NO: 4879: siRNA targeting IMPDH2 (chain 1 AATACCGCCTGTAAGCGCCATTGCT; chain 2 AAUACCGCCUGUAAGCGCCAUUGCU; Both strands are one antisense strand in DNA/RNA notation, chemistry not given here, further chemistry not given here; one strand in two spellings)
Growth Inhibition in A549 cells [1]: ++ (inhibits by at least 75%) | tumor growth inhibition compared to the control groups [2]: No tumor growth inhibition

SEQ ID NO: 4970: siRNA targeting ABCC4 (MRP4) (chain 1 AATCTTGGAAATCTCCTTCTTTCTC; chain 2 AAUCUUGGAAAUCUCCUUCUUUCUC; chemistry not given here; one strand in two spellings)
Growth Inhibition in A549 cells by 10 nM siRNA [1]: − (no growth inhibition) | mRNA knockdown of transporter gene target transcript, 0.1 nM [3]: ++ (70-90% mRNA knockdown) | mRNA knockdown of transporter gene target transcript, 1 nM [3]: ++ (70-90% mRNA knockdown)

SEQ ID NO: 4971: siRNA targeting ABCC4 (MRP4) (chain 1 CAATAATGGTGTTCAATCTGTGTGC; chain 2 CAAUAAUGGUGUUCAAUCUGUGUGC; chemistry not given here; one strand in two spellings)
Growth Inhibition in A549 cells by 10 nM siRNA [1]: − (no growth inhibition) | mRNA knockdown of transporter gene target transcript, 0.1 nM [3]: − (<50% mRNA knockdown) | mRNA knockdown of transporter gene target transcript, 1 nM [3]: ++ (70-90% mRNA knockdown)

SEQ ID NO: 4972: siRNA targeting ABCC4 (MRP4) (chain 1 AAATAGTTAAGGTCGAGGGCTGTCC; chain 2 AAAUAGUUAAGGUCGAGGGCUGUCC; chemistry not given here; one strand in two spellings)
Growth Inhibition in A549 cells by 10 nM siRNA [1]: − (no growth inhibition) | mRNA knockdown of transporter gene target transcript, 0.1 nM [3]: − (<50% mRNA knockdown) | mRNA knockdown of transporter gene target transcript, 1 nM [3]: ++ (70-90% mRNA knockdown)

SEQ ID NO: 4973: siRNA targeting ABCC5 (MRP5) (chain 1 TAAGATGGCAACAACGGGTCCTCCA; chain 2 UAAGAUGGCAACAACGGGUCCUCCA; chemistry not given here; one strand in two spellings)
Growth Inhibition in A549 cells by 10 nM siRNA [1]: − (no growth inhibition) | mRNA knockdown of transporter gene target transcript, 0.1 nM [3]: − (<50% mRNA knockdown) | mRNA knockdown of transporter gene target transcript, 1 nM [3]: − (<50% mRNA knockdown)

SEQ ID NO: 4974: siRNA targeting ABCC5 (MRP5) (chain 1 AACCTCTTCCATTAGAAACAAACTC; chain 2 AACCUCUUCCAUUAGAAACAAACUC; chemistry not given here; one strand in two spellings)
Growth Inhibition in A549 cells by 10 nM siRNA [1]: + (inhibits by at least 50%) | mRNA knockdown of transporter gene target transcript, 0.1 nM [3]: − (<50% mRNA knockdown) | mRNA knockdown of transporter gene target transcript, 1 nM [3]: + (50-70% mRNA knockdown)

SEQ ID NO: 4975: siRNA targeting ABCC5 (MRP5) (chain 1 ATTCTGAGCTGAGAATGCATGGAGG; chain 2 AUUCUGAGCUGAGAAUGCAUGGAGG; chemistry not given here; one strand in two spellings)
Growth Inhibition in A549 cells by 10 nM siRNA [1]: ++ (inhibits by at least 75%) | mRNA knockdown of transporter gene target transcript, 0.1 nM [3]: − (<50% mRNA knockdown) | mRNA knockdown of transporter gene target transcript, 1 nM [3]: + (50-70% mRNA knockdown)

SEQ ID NO: 4977: siRNA targeting ABCB1 (MDR1) (chain 1 AAACGATGAGCTATCACAATGGTGG; chain 2 AAACGAUGAGCUAUCACAAUGGUGG; chemistry not given here; one strand in two spellings)
Growth Inhibition in A549 cells by 10 nM siRNA [1]: − (no growth inhibition) | mRNA knockdown of transporter gene target transcript, 0.1 nM [3]: − (<50% mRNA knockdown) | mRNA knockdown of transporter gene target transcript, 1 nM [3]: − (<50% mRNA knockdown)

SEQ ID NO: 4978: siRNA targeting ABCB1 (MDR1) (chain 1 TTGGTACTAAGCTTTCTGTCTTGGG; chain 2 UUGGUACUAAGCUUUCUGUCUUGGG; chemistry not given here; one strand in two spellings)
Growth Inhibition in A549 cells by 10 nM siRNA [1]: − (no growth inhibition) | mRNA knockdown of transporter gene target transcript, 0.1 nM [3]: − (<50% mRNA knockdown) | mRNA knockdown of transporter gene target transcript, 1 nM [3]: − (<50% mRNA knockdown)

SEQ ID NO: 5306: Stealth siRNA targeting RRM2 (chain 1 TGTCCAGGTGTTTGAACATCAGGC; chain 2 UGUACCAGGUGUUUGAACAUCAGGC; Stealth siRNA, chemical pattern not given here)
Growth Inhibition in A549 cells [1]: ++ (inhibits by at least 75%) | mRNA knockdown of energy and metabolism gene target transcript, 0.1 nM [3]: ++ (70-90% mRNA knockdown) | mRNA knockdown of energy and metabolism gene target transcript, 1 nM [3]: + (50-70% mRNA knockdown)

SEQ ID NO: 5308: Stealth siRNA targeting RRM2 (chain 1 TTATACATCTGCCAGATATCATGGT; chain 2 UUAUACAUCUGCCAGAUAUCAUGGU; Stealth siRNA, chemical pattern not given here; one strand in two spellings)
Growth Inhibition in A549 cells [1]: ++ (inhibits by at least 75%) | mRNA knockdown of energy and metabolism gene target transcript, 0.1 nM [3]: ++ (70-90% mRNA knockdown) | mRNA knockdown of energy and metabolism gene target transcript, 1 nM [3]: ++ (70-90% mRNA knockdown)
